Patent US20230278954A1, “BRANCHED LIPID COMPOUDS” (priority 2020, published 2023)
Where “and” joins values, the source holds several entries; their conditions need not be identical. Identical values can stand only once.

What was measured:
[1] = target: T1, human TLR2 (Homo sapiens, UniProt O60603); test: Activation of human TLR2 II: HEK-BLUE-hTLR2 NF-kB/SEAP reporter assay; assay type: cell-based; conditions: for optical density (650 nm): screenings 1-3; for EC50 / activity at TLR2 (in words): HEK-BLUE-hTLR2 cells; for fold induction at 0.0001 µg/mL / fold induction at 0.00031 µg/mL / fold induction at 0.0005 µg/mL / fold induction at 0.002 µg/mL / fold induction at 0.0078 µg/mL / fold induction at 0.0313 µg/mL / fold induction at 0.125 µg/mL: HEK-Blue hTLR2, read-out: Fold induction (ratio of average induced value to average non-induced value)
T1 construct: expressed in transfected cells; host or cells: HEK-Blue hTLR2 cells
T1 sequence (O60603 21-784): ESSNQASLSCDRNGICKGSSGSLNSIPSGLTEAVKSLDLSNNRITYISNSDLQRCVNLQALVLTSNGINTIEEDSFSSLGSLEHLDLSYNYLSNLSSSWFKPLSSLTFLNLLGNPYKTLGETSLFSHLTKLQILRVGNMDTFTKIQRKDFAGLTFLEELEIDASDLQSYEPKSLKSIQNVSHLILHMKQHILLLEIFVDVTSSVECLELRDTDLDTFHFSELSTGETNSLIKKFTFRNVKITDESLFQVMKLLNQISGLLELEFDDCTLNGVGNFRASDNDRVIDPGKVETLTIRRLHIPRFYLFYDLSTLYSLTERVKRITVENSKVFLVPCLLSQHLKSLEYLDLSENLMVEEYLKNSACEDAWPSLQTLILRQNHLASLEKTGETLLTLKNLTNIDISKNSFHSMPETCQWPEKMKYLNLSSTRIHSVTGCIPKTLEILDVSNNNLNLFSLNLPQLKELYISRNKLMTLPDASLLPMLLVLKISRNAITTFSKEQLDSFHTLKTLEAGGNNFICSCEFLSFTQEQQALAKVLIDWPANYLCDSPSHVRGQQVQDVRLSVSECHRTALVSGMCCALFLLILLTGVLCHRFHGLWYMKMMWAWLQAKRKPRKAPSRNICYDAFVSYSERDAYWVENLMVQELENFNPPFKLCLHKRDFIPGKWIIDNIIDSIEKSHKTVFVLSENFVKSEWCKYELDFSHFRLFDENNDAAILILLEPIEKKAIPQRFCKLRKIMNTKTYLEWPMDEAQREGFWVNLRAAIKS
T1 sequence (Q9Y2C9 32-796 partner): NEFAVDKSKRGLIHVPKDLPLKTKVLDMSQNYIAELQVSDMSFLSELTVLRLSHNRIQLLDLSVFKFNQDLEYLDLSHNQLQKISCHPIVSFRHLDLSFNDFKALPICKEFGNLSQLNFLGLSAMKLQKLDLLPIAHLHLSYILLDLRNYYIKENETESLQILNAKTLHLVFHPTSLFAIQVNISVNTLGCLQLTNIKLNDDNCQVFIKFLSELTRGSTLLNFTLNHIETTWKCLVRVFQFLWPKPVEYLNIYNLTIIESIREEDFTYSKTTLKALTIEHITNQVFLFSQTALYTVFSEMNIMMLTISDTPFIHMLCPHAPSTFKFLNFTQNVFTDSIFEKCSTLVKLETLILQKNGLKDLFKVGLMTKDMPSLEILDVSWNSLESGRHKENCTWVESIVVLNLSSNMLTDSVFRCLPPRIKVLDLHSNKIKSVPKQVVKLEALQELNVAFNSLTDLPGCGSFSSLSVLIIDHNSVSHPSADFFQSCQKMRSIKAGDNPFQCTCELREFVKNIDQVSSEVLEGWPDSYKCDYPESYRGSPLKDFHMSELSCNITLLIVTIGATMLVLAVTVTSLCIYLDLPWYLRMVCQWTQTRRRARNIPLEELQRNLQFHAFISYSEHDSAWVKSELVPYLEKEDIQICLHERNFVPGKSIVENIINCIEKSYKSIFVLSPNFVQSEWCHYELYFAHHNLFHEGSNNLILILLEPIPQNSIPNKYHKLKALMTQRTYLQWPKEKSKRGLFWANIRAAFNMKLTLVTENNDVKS
Experimental: The potency of the compounds as activators of human TLR-2s is tested in an in vitro assay in HEK-BLUE-hTLR2 cells.
HEK-BLUE-hTLR2 cells are designed for studying the stimulation of human TLR2 (hTLR2) by monitoring the activation of NF-kB. HEK-BLUE-hTLR2 cells are obtained by co-transfection of the hTLR2 and SEAP (secreted embryonic alkaline phosphatase) reporter genes into HEK293 cells. Stimulation with a TLR2 ligand activates NF-kB which induces the production of SEAP.
HEK-BLUE-hTLR2 cells were purchased from InvivoGen (San Diego, CA, USA). Cells were grown in DMEM supplemented with 10% FCS, 100 U/ml penicillin, 100 ug/ml streptomycin and 2 mM L-glutamine, 100 µg/mL Normocin in the presence of selection antibiotic purchased from InvivoGen and passaged when 70% confluence was reached per manufacturer’s recommendation.
i) A serial dilution of respective compounds were prepared in saline and added in […] of each dilution in triplicates per well in a flat bottom 96-well plate and placed in the incubator while waiting for the cells.
ii) Remove HEK-BLUE-hTLR2 cells in a T-75 flask from incubator and discard the growth media.
iii) Gently rinse the cells with prewarmed 10 ml of PBS
iv) Add 5 ml of prewarmed PBS and place the cells in 37° C. for 2 mins and then detach the cells by gently pipetting up and down the PBS on the surface where the cells adhere.
v) Cells suspension at the density of 280,000 cells/ml is prepared in HEK-Blue™ Detection medium which is purchased from InvivoGen and prepared according to the manufacturer’s instruction,
vi) Add immediately […] of the cell suspension per well of the plate which contains the solution of the compounds. […]

[2] = target: T1, human TLR2; test: Activation of human TLR2 III: HEK-Blue hTLR2 dose response (SEAP reporter); assay type: cell-based; conditions: for optical density (650 nm): screenings 1-3; for stimulatory / agonist activity for hTLR2 (in words) / fold induction at 120 fg/mL / fold induction at 490 fg/mL / fold induction at 1.95 pg/mL / fold induction at 7.81 pg/mL / fold induction at 31.25 pg/mL / fold induction at 0.000125 µg/mL / fold induction at 0.0005 µg/mL: HEK-Blue hTLR2; for fold induction at 120 fg/mL / fold induction at 490 fg/mL / fold induction at 1.95 pg/mL / fold induction at 7.81 pg/mL / fold induction at 31.25 pg/mL / fold induction at 0.000125 µg/mL / fold induction at 0.0005 µg/mL: read-out: Fold Induction (ratio of average induced value to average non-induced value); for EC50: agonism of hTLR2, HEK-Blue hTLR2
Experimental: (§1) Toll-Like Receptor (TLR) stimulation is tested by assessing NF-KB activation in the TLR expressing cell lines. HEK-Blue h/mTLR2 cells have been stably transfected with human or mouse TLR2 and CD14. The activity of the test articles are tested on human and mouse TLR2, as potential agonists. The test articles are evaluated at seven concentrations and compared to control ligands (see list below). These steps are performed in triplicate.
(§2) A 5 µg/mL working stock was then prepared for each compound from the 20 µg/mL dilution in sterile PBS. Starting from the 5 µg/mL working stock, a series of six 1:4 serial dilutions were made by mixing 100 µL of the previous highest dilution with 300 µL sterile PBS.
(§3) The secreted embryonic alkaline phosphatase (SEAP) reporter is under the control of a promoter inducible by the transcription factor NF-κB. This reporter gene allows the monitoring of signaling through the TLR, based on the activation of NF-κB. In a 96-well plate (200 µL total volume) containing the appropriate cells (50,000 - 75,000 cells/well), 20 µL of the test article or the positive control ligand (HKLC) is added to the wells. The media added to the wells is designed for the detection of NF-κB induced SEAP expression. After a 16-24-hour incubation the optical density (OD) is read at 650 nm on a Molecular Devices SpectraMax 340PC absorbance detector.

[3] = target: T2, mouse TLR2 (Mus musculus, UniProt Q9QUN7); test: HEK-Blue mTLR2 dose response (SEAP reporter); assay type: cell-based
T2 construct: expressed in transfected cells; host or cells: HEK-Blue mTLR2 cells
T2 sequence (Q9QUN7 25-784): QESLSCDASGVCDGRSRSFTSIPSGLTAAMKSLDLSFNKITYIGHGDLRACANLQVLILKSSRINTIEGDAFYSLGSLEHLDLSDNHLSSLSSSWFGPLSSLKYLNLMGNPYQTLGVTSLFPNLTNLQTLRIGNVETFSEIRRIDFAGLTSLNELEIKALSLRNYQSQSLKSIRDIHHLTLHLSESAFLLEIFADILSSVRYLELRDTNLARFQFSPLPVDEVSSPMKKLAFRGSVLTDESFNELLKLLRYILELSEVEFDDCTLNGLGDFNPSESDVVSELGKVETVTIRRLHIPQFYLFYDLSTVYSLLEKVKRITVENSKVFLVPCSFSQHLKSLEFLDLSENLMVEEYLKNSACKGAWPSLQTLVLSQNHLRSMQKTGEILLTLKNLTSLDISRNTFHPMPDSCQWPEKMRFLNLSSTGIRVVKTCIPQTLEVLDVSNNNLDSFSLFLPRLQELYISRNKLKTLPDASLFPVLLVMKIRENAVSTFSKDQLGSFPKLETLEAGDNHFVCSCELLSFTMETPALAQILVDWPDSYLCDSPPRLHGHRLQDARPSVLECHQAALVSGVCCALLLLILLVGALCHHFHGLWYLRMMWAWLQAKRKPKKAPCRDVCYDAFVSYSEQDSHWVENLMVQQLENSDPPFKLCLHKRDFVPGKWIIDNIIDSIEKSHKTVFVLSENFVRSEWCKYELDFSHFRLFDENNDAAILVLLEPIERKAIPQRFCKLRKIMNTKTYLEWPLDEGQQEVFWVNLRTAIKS
T2 sequence (Q9Y2C9 32-796 partner): as the sequence (Q9Y2C9 32-796 partner) above
Experimental: as §1, §2, §3

[4] = test system: HEK-Blue Null1 cells; test: TLR- control cell line HEK-Blue Null1 (control for human TLR2); assay type: cell-based
Experimental: as §3

[5] = test system: HEK-Blue Null2 cells; test: TLR- control cell line HEK-Blue Null2 (control for mouse TLR2); assay type: cell-based
Experimental: as §3

[6] = Stability IV: formulation pH during accelerated storage; assay type: physicochemical
Experimental: Each compound was formulated in 0.9% w/w saline with addition of 0.1% w/w EDTA at about pH 5. The formulations were stored in the dark under accelerated conditions (40° C./75% RH) and reference formulations were stored at -80° C. At days 0, 9 and 28, samples were analysed by UHPLC and pH was measured.
The remaining ~ 1 mL of solution in the clear glass HPLC vials was stored at 40° C./75% RH and was used to measure pH at each time point.
The formulation pH data recorded at each time point are compiled in Table 19. There was a general trend for the pH to increase with time but the effect was not pronounced.

CCCCCCCCCCCCCCC(C)C(=O)OC[C@H](CSC[C@H](N)C(=O)N[C@@H](CO)C(=O)NCCOCCOCCOCCOCCOCCOCCOCCOCCOCCOCCOCCOCCOCCOCCOCCOCCOCCOCCOCCOCCOCCOCCOCCOCCOCCOCCOCCOCCC(=O)NCC(N)=O)OC(=O)C(C)CCCCCCCCCCCCCC (stereo partly drawn) [Compound B4]
optical density (650 nm) ([1]; 0.1 ng/mL): 0.182 and 0.206 and 0.197
optical density (650 nm) ([1]; 0.31 ng/mL): 0.126 and 0.115
optical density (650 nm) ([1]; 0.5 ng/mL): 0.719 and 0.594 and 0.617
optical density (650 nm) ([1]; 2.0 ng/mL): 1.660 and 1.529 and 1.498
optical density (650 nm) ([1]; 7.8 ng/mL): 2.214 and 2.163
optical density (650 nm) ([1]; 31.3 ng/mL): 2.438 and 2.327 and 2.350
optical density (650 nm) ([1]; 125 ng/mL): 2.451 and 2.411 and 2.467
EC50 [1]: 0.605 nM
activity at TLR2 (in words) [1]: significant activity
fold induction at 0.0001 µg/mL ([1]; 0.1 ng/mL): 1.9
fold induction at 0.00031 µg/mL ([1]; 0.31 ng/mL): 1.2
fold induction at 0.0005 µg/mL ([1]; 0.5 ng/mL): 6.2
fold induction at 0.002 µg/mL ([1]; 2.0 ng/mL): 15.2
fold induction at 0.0078 µg/mL ([1]; 7.8 ng/mL): 21.3
fold induction at 0.0313 µg/mL ([1]; 31.3 ng/mL): 23
fold induction at 0.125 µg/mL ([1]; 125 ng/mL): 23.7
Average optical density (650 nm) ([2]; 0.12 pg/mL): 0.740
optical density (650 nm) ([2]; 0.12 pg/mL): 0.653 and 0.759 and 0.809
Average optical density (650 nm) ([2]; 0.49 pg/mL): 1.479
optical density (650 nm) ([2]; 0.49 pg/mL): 1.409 and 1.507 and 1.521
Average optical density (650 nm) ([2]; 1.95 pg/mL): 1.823
optical density (650 nm) ([2]; 1.95 pg/mL): 1.795 and 1.757 and 1.916
Average optical density (650 nm) ([2]; 7.81 pg/mL): 2.260
optical density (650 nm) ([2]; 7.81 pg/mL): 2.288 and 2.168 and 2.323
Average optical density (650 nm) ([2]; 31.25 pg/mL): 2.481
optical density (650 nm) ([2]; 31.25 pg/mL): 2.440 and 2.485 and 2.518
Average optical density (650 nm) ([2]; 125 pg/mL): 2.521
optical density (650 nm) ([2]; 125 pg/mL): 2.569 and 2.508 and 2.487
Average optical density (650 nm) ([2]; 500 pg/mL): 2.611
optical density (650 nm) ([2]; 500 pg/mL): 2.717 and 2.590 and 2.526
stimulatory / agonist activity for hTLR2 (in words) [2]: stimulatory activity
fold induction at 120 fg/mL ([2]; 0.12 pg/mL): 10.3
fold induction at 490 fg/mL ([2]; 0.49 pg/mL): 20.5
fold induction at 1.95 pg/mL ([2]; 1.95 pg/mL): 25.3
fold induction at 7.81 pg/mL ([2]; 7.81 pg/mL): 31.4
fold induction at 31.25 pg/mL ([2]; 31.25 pg/mL): 34.5
fold induction at 0.000125 µg/mL ([2]; 125 pg/mL): 35
fold induction at 0.0005 µg/mL ([2]; 500 pg/mL): 36.3
EC50 [2]: 0.214 nM
stimulatory / agonist activity for mTLR2 (in words) [3]: stimulatory activity
stimulatory response in HEK-Blue Null1 (human) cells (in words) [4]: not observed
stimulatory response in HEK-Blue Null2 (mouse) cells (in words) [5]: not observed
pH of formulation ([6]; 0-days): 5.6
pH of formulation ([6]; 9-days, 40° C./75% RH): 5.7
pH of formulation ([6]; 28-days, 40° C./75% RH): 5.7

CCCCCCCCCCCCCCC(C)C(=O)OCC[C@H](CSC[C@H](N)C(=O)N[C@@H](CO)C(=O)NCCOCCOCCOCCOCCOCCOCCOCCOCCOCCOCCOCCOCCOCCOCCOCCOCCOCCOCCOCCOCCOCCOCCOCCOCCOCCOCCOCCOCCC(=O)NCC(N)=O)OC(=O)C(C)CCCCCCCCCCCCCC (stereo partly drawn) [Compound B12]
optical density (650 nm) ([1]; 0.1 ng/mL): 0.239 and 0.202 and 0.208
optical density (650 nm) ([1]; 0.31 ng/mL): 0.116 and 0.132 and 0.137
optical density (650 nm) ([1]; 0.5 ng/mL): 0.585 and 0.558 and 0.559
optical density (650 nm) ([1]; 2.0 ng/mL): 1.429 and 1.308 and 1.638
optical density (650 nm) ([1]; 7.8 ng/mL): 2.187 and 2.257 and 2.302
optical density (650 nm) ([1]; 31.3 ng/mL): 2.422 and 2.423 and 2.449
optical density (650 nm) ([1]; 125 ng/mL): 2.409 and 2.564 and 2.615
EC50 [1]: 0.74 nM
activity at TLR2 (in words) [1]: significant activity
fold induction at 0.0001 µg/mL ([1]; 0.1 ng/mL): 2.2
fold induction at 0.00031 µg/mL ([1]; 0.31 ng/mL): 1.3
fold induction at 0.0005 µg/mL ([1]; 0.5 ng/mL): 5.8
fold induction at 0.002 µg/mL ([1]; 2.0 ng/mL): 15
fold induction at 0.0078 µg/mL ([1]; 7.8 ng/mL): 23.2
fold induction at 0.0313 µg/mL ([1]; 31.3 ng/mL): 25.1
fold induction at 0.125 µg/mL ([1]; 125 ng/mL): 26.1
Average optical density (650 nm) ([2]; 0.12 pg/mL): 1.362
optical density (650 nm) ([2]; 0.12 pg/mL): 1.443 and 1.313 and 1.329
Average optical density (650 nm) ([2]; 0.49 pg/mL): 1.860
optical density (650 nm) ([2]; 0.49 pg/mL): 1.892 and 1.785 and 1.902
Average optical density (650 nm) ([2]; 1.95 pg/mL): 2.045
optical density (650 nm) ([2]; 1.95 pg/mL): 2.149 and 2.008 and 1.979
Average optical density (650 nm) ([2]; 7.81 pg/mL): 2.411
optical density (650 nm) ([2]; 7.81 pg/mL): 2.420 and 2.446 and 2.366
Average optical density (650 nm) ([2]; 31.25 pg/mL): 2.457
optical density (650 nm) ([2]; 31.25 pg/mL): 2.492 and 2.500 and 2.380
Average optical density (650 nm) ([2]; 125 pg/mL): 2.568
optical density (650 nm) ([2]; 125 pg/mL): 2.608 and 2.541 and 2.555
Average optical density (650 nm) ([2]; 500 pg/mL): 2.471
optical density (650 nm) ([2]; 500 pg/mL): 2.584 and 2.404 and 2.426
stimulatory / agonist activity for hTLR2 (in words) [2]: stimulatory activity
fold induction at 120 fg/mL ([2]; 0.12 pg/mL): 18.7
fold induction at 490 fg/mL ([2]; 0.49 pg/mL): 25.5
fold induction at 1.95 pg/mL ([2]; 1.95 pg/mL): 28
fold induction at 7.81 pg/mL ([2]; 7.81 pg/mL): 33
fold induction at 31.25 pg/mL ([2]; 31.25 pg/mL): 33.7
fold induction at 0.000125 µg/mL ([2]; 125 pg/mL): 35.2
fold induction at 0.0005 µg/mL ([2]; 500 pg/mL): 33.9
EC50 [2]: 0.0509 nM
stimulatory / agonist activity for mTLR2 (in words) [3]: stimulatory activity
stimulatory response in HEK-Blue Null1 (human) cells (in words) [4]: not observed
stimulatory response in HEK-Blue Null2 (mouse) cells (in words) [5]: not observed
pH of formulation ([6]; 0-days): 5.6
pH of formulation ([6]; 9-days, 40° C./75% RH): 5.7
pH of formulation ([6]; 28-days, 40° C./75% RH): 5.7
